The source of these data is patent publication US20040023299A1, “Diagnosis of liver disease” (priority 2000, published 2004).

The conditions of the series: rats. The protocol: Chronic liver disease was established by exposing the animals of the 3 experimental groups to weekly intra-gastric administration of CCl4. A starting dose of 80 μl was used and increased weekly, based on the weight of the animals. Nothing was administered to the control group. All the animals were weighed on day one and the experimental groups started with their 80 μl CCl4. After three days the animals were again weighed to determine the dose for the second week. That was the procedure for the administration of the CC4 l during the entire experiment. On day three of week five, the scanning of group 1 started. Anaesthesia in each case was induced with an intraperitoneal injection of sodium pentobarbitone 6% solution (Sagatal, Kryon Laboratories Pty Ltd., Benrose, Gauteng, S. A). […] After the completion of the acquisition, the rats were terminated by an intravenous overdose of sodium pentobarbitone. The livers were taken out, stored in a 10% formalin solution until the next day and then processed and stained with Haematoxylin and Eosin, Reticulin and Cyrus red.
Liver sections of the rats were stained with H&E, Masson Trichrome and Reticulin stains. The amount of necrosis and fibrosis were interpreted by an experienced hepatopathologist and scored according to a classification system whereby 1 was mild necrosis or fibrosis and 4 severe.

[1] abbreviates: weekly intra-gastric CCl4, after 5 weeks.
Setting [2] is: weekly intra-gastric CCl4, after 7 weeks.
The mark [3] stands for this setting: weekly intra-gastric CCl4, after 9 weeks.

SMILES strings stand for the structures. Like-named read-outs stand apart in the source and are kept apart here.

Consider `ClC(Cl)(Cl)Cl` [CCl4], for which the “average score for fibrosis (1 mild, 4 severe)” value (shortened to “average score for fibrosis”) under setting [1] came out at 1.9; the “average score for fibrosis” value under setting [2] is listed as 1.9; the “average score for fibrosis” value under setting [3] came out at 2.1. The “average score for necrosis (1 mild, 4 severe)” value is listed as 1.9 under setting [1], 1.7 under setting [2] and 1.4 under setting [3].
